Assay: Prostate case study: DCE CT tissue concentration-time curve fitted to 2-, 3- and 4-compartment mamillary distributed-parameter models
Format: in vivo, patient
Settings: value (percent CV); for t1: vascular transit time
Text: It is instructive to apply the present mamillary model to a tumor study case to further illustrate some physiological aspects of the model, and also for comparison with another model. Ca(t) was sampled at the iliac arteries simultaneously in the same CT scan as the prostate tissue concentration-time curve, Ctiss(t). The contrast medium used was the x-ray dye lopamidol and the region of interest for Ctiss was drawn over the prostate gland. Example imaging and patient protocols that were used are, for example, expounded upon in T. S. Koh, V. Zeman, J. Darko, T. Lee, M. F. Milosevic, M. Haider, P. Warde, and I. W. T. Yeung, “The inclusion of capillary distribution in the adiabatic tissue homogeneity model of blood flow”, Phys. Med. Biol., vol. 46, pp. 1519-1538, 2001.
The ‘goodness-of-fit’ between model and data can be given by the χ^2 statistic as detailed in equation (11).
A 2-compartment distributed-parameter model has 4 adjustable parameters (i.e F, t1, k12 and k21), and each additional compartment introduces two additional parameters given by the rate constants.
The tissue concentration-time curve Ctiss(t) was sampled at a region of interest over the prostate tumor. […] A test statistic to compare the goodness-of-fit of a more complex model (χ^2c) with that of a less complex (reduced) model (χ^2r) can be given by equation (12), namely [formula] which follows the F-distribution. The degrees of freedom dfr and dfc are those associated with the reduced and complex models, respectively. […] Correspondingly, large values of F* would justify the more complex model.
The fitted Ctiss(t) curves using 2-, 3- and 4-compartment distributed-parameter models are shown in FIG. 5 and their corresponding impulse residue functions are shown in FIG. 6. The values for the parameters adjusted in the model fittings together with their error estimates (as percent CVi) are listed in Table 1.

[1] = 2-compartment model, rate constant for tracer transfer
[2] = 3-compartment model, rate constant for tracer transfer
[3] = 4-compartment model, rate constant for tracer transfer

## C[C@H](O)C(=O)Nc1c(I)c(C(=O)NC(CO)CO)c(I)c(C(=O)NC(CO)CO)c1I [lopamidol]
[1]
  K12: 0.744 (4) min^−1
  K21: 2.183 (4) min^−1
2-compartment model
  t1: 0.717 (3) min
[2]
  K12: 1.581 (17) min^−1
  K13: 0.259 (28) min^−1
  K21: 1.854 (15) min^−1
  K31: 0.818 (25) min^−1
3-compartment model
  t1: 0.688 (9) min
[3]
  K12: 1.579 (20) min^−1
  K13: 0.264 (36) min^−1
  K14: 0.000 (53) min^−1
  K21: 1.853 (17) min^−1
  K31: 0.816 (32) min^−1
  K41: 0.000 (44) min^−1
4-compartment model
  t1: 0.688 (11) min
